Data as given in patent publication US20060121449A1, “Method for selection of compounds which inhibit clonal cell growth and use thereof” (priority 2002, published 2006).
“Also recorded” adds a separate entry of the source.

What was measured:
[1] = system: polyoma virus transformed BHK21/c13 cells, clone S100T1; experiment: Clonal test: clonal growth of S100T1 cells in soft agar (Exp 2, 4, 6, 15, 16); type: cell-based, hamster; conditions: for Anti-clonal effect, summary of Exp 15 / Anti-clonal effect, summary of Exp 16: S100T1 in soft agar; for Significance of results: Exp 16, read after 14 days, ca. 223 μM; for Effect on clonal growth at 500 μM: DMSO toxicity might interfere
Method: The clonal test comprises: • 1. seeding cells in soft agar optionally containing growth factor(s); • 2. handling or incubation of special gels (e.g. ultra low gelling temperature agarose), including the production of cell density gradients. • 3. incubating in suitable temperature and atmosphere and; • 4. regular monitoring of the cells and development of clones.
The clonal test can be directed in fluid medium or in soft agar medium. Usually only transformed cells will form clones in soft agar.
After seeding and mixing, the tubes were placed in the refrigerator for about 1 hour to consolidate the ultra low melting point agarose.
120000 S100T1 cells of a polyoma virus transformed BHK21/c13 cell line, were seeded in 1 ml soft agar medium in Falcon 50 ml centrifuge tubes. […] On the top of the agar layer 0.5 ml fluid medium was added.
Agar cultures were prepared in wells of 24 well Falcon tissue culture plate. […] Insulin (Actrapid, Novo) was added in a concentration of 0.1 i.u./ml to BHK21/c13 cell cultures only.
The cells were all single cells. Each well received 32000 cells (Table 4). Plate: 24 wells Falcon tissue culture plate received a bottom layer composed as in Table 3:
The cells were all single cells.
The wells contained two layers, each of 0.3 ml agar.
The agarose was added to double distilled water and solved by heating in micro oven.

[2] = system: polyoma virus transformed BHK21/c13 cells, line S100T1; experiment: Collocation inhibition test: clonal growth in sparsely and densely seeded areas of a cell density gradient of S100T1 cells in soft agar (Exp 13, 17, 19-26); conditions: for Clonal growth, H: high density area of cell gradient, High / Clonal growth, L: low density area of cell gradient, High / Clonal growth, H: high density area of cell gradient, Low / Clonal growth, L: low density area of cell gradient, Low / Clonal growth, H: high density area of cell gradient, Medium / Clonal growth, L: low density area of cell gradient, Medium: 4-OH-OPB analogues, S100T1 in soft agar; for Clonal growth, H: high density area of cell gradient, High / Clonal growth, L: low density area of cell gradient, High / Clonal growth, L low density area of cell gradient, High: high concentration; for Clonal growth, H: high density area of cell gradient, Low / Clonal growth, L: low density area of cell gradient, Low / Clonal growth, L low density area of cell gradient, Low: low concentration; for Clonal growth, H: high density area of cell gradient, Medium / Clonal growth, L: low density area of cell gradient, Medium: medium concentration; for Clonal growth read on the 6th day after seeding / Clonal growth read on the 3rd day after seeding: Exp 17; for Clonal growth, L low density area of cell gradient, High / Clonal growth, L low density area of cell gradient, Low / Effect on cell cloning in soft agar: preliminary results; for Clonal growth, L low density area of cell gradient, High / Clonal growth, L low density area of cell gradient, Low: Exp 13-18, 21-26; for Effect on cell cloning in soft agar: in words;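 as to Clonal growth, L low density area of cell gradient, High: grades rise with clonal growth and minus or plus-minus means none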;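 as to Clonal growth, L low density area of cell gradient, Low: grades rise with clonal growth and minus or plus-minus means none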;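 as to all read-outs here: soft agar cultures in 24-well plates with a cell density gradient in the top layer, compounds applied from DMSO stocks, clonal growth scored in sparse versus dense areas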
[3] = Exp 15, 5th day, High conc., μM in wells: No 1 (4-OH—OPB) 20, 2 (Colchicine) 0.1, 3 (Diphenylhydantoin) 100, 4 (Podophyllotoxin) 0.3, 5 (Piroxicam) 50, 6 (Diclofenak) 100, ” = as line above
[4] = Exp 15, 5th day, Low conc., μM in wells: No 1 (4-OH—OPB) 2, 2 (Colchicine) 0.01, 3 (Diphenylhydantoin) 10, 4 (Podophyllotoxin) 0.03, 5 (Piroxicam) 5, 6 (Diclofenak) 10, 7 (Ibuprofen) 100, 8 (Naproxen) 50, 9 (Acetylsalicylic acid) 100, ” = as line above
[5] = Low: #1 Colchicine 0.1, #2 Podophyllotoxin 0.3, #3 Etoposide 20, #4 4-OH—OPB 0.67 μM in wells, #5 DMSO 1.16 μl
[6] = Medium: #1 Colchicine 0.3, #2 Podophyllotoxin 0.9, #3 Etoposide 60, #4 4-OH—OPB 2 μM in wells, #5 DMSO 6.8 μl
[7] = Summary Table 3 of analogue tests (experiments 22-25), H (high cell density), High concentration
[8] = Summary Table 3 of analogue tests (experiments 22-25), H (high cell density), Low concentration
[9] = Summary Table 3 of analogue tests (experiments 22-25), H (high cell density), Medium concentration
[10] = Summary Table 3 of analogue tests (experiments 22-25), L (low cell density), Low concentration
[11] = Summary Table 3 of analogue tests (experiments 22-25), L (low cell density), Medium concentration
[12] = Exp 15, 32000 S100T1 cells/well
[13] = High: #1 Colchicine 1, #2 Podophyllotoxin 3, #3 Etoposide 200, #4 4-OH—OPB 6.7 μM in wells, #5 DMSO 29.2 μl

CCCCC(O)(C(=O)Nc1ccccc1)C(=O)Nc1ccc(O)cc1 (centres unmarked) [#2, 2-Butyl-2-hydroxy-N-(4-hydroxy-phenyl)-N′-phenyl malonamide]
Significance [1, 3]: no | Significance [1, 4]: no | Clonal growth ([1]; Exp 15, plate read the 5th day, Low conc., μM in wells: No 1 (4-OH—OPB) 2, 2 (Colchicine) 0.01, 3 (Diphenylhydantoin) 10, 4 (Podophyllotoxin) 0.03, 5 (Piroxicam) 5, 6 (Diclofenak) 10, 7 (Ibuprofen) 100, 8 (Naproxen) 50, 9 (Acetylsalicylic acid) 100): ++ | Clonal growth, H: high density area of cell gradient, High [2]: ++ | Clonal growth, L: low density area of cell gradient, High [2]: − | Clonal growth, H: high density area of cell gradient, Low [2]: ++(+) | Clonal growth, L: low density area of cell gradient, Low [2]: ++ | Clonal growth, H: high density area of cell gradient, Medium [2]: ++ | Clonal growth, L: low density area of cell gradient, Medium [2]: ++ | Clonal growth read on the 6th day after seeding [2, 5]: + | Clonal growth read on the 6th day after seeding [2, 6]: (+ | Clonal growth ([2]; Experiment 23, A (area with high cell density), High concentration, 48 hours): ++ | Clonal growth ([2]; Experiment 23, A (area with high cell density), Low concentration, 48 hours): ++(+) | Clonal growth ([2]; Experiment 23, A (area with high cell density), Medium concentration, 48 hours): ++ | Clonal growth ([2]; Experiment 23, B (area with low cell density), High concentration, 48 hours): − | Clonal growth ([2]; Experiment 23, B (area with low cell density), Low concentration, 48 hours): ++ | Clonal growth ([2]; Experiment 23, B (area with low cell density), Medium concentration, 48 hours): ++ | Clonal growth [2, 7]: ++ | Clonal growth [2, 8]: ++(+) | Clonal growth [2, 9]: ++ | Clonal growth ([2]; Summary Table 3 of analogue tests (experiments 22-25), L (low cell density), High concentration): − | Clonal growth [2, 10]: ++ | Clonal growth [2, 11]: ++ | Clonal inhibition by 4-OH-OPB analogues, summary of Exp 22-25 ([2]; sparsely seeded areas while densely seeded areas of the same culture showed significant growth): complete inhibition of growth in sparsely seeded areas

O=C1NC(=O)C(c2ccccc2)(c2ccccc2)N1 [Diphenhydantoin]
Effect on clonal growth at 10-100 μM [1, 12]: did not inhibit clonal growth significantly

CN1C(C(=O)Nc2ccccn2)=C(O)c2ccccc2S1(=O)=O [Piroxicam]
Effect on clonal growth at 50 μM [1, 12]: inhibited doubtfully; also recorded: possibly inhibited significantly | Effect on clonal growth at 5-50 μM [1, 12]: did not inhibit clonal growth significantly | Anti-clonal effect, summary of Exp 15 [1]: Piroxicam inhibited less, but similarly | Clonal growth, L low density area of cell gradient, High [2]: + | Clonal growth, L low density area of cell gradient, Low [2]: ++ | Effect on cell cloning in soft agar [2]: Clonal inhibition possible

CCCCC(C(=O)Nc1ccccc1)C(=O)Nc1ccc(O)cc1 (centres unmarked) [#4, 2-Butyl-N-(4-hydroxy-phenyl)-N′-phenylmalonamide]
Significance [1, 3]: probably | Significance [1, 4]: ” | Clonal growth, H: high density area of cell gradient, High [2]: ++ | Clonal growth, L: low density area of cell gradient, High [2]: ((+)) | Clonal growth, H: high density area of cell gradient, Low [2]: ++ | Clonal growth, L: low density area of cell gradient, Low [2]: ++ | Clonal growth, H: high density area of cell gradient, Medium [2]: ++ | Clonal growth, L: low density area of cell gradient, Medium [2]: ++ | Clonal growth read on the 3rd day after seeding [2, 13]: − | Clonal growth read on the 6th day after seeding [2, 13]: ((+)) | Clonal growth read on the 3rd day after seeding [2, 5]: + | Clonal growth read on the 6th day after seeding [2, 5]: + | Clonal growth read on the 3rd day after seeding [2, 6]: − | Clonal growth read on the 6th day after seeding [2, 6]: ((+)) | Inhibition of clonal growth of sparsely seeded cells ([2]; Exp 22, 117000 S100T1 cells/well): smaller effect; also recorded: showed an effect, but even higher concentration was needed than for #6 | Clonal growth ([2]; Experiment 22, H: area with high cell density, High concentration): ++ | Clonal growth ([2]; Experiment 22, H: area with high cell density, Low concentration): ++ | Clonal growth ([2]; Experiment 22, H: area with high cell density, Medium concentration): ++ | Clonal growth ([2]; Experiment 22, L: area with low cell density, Low concentration): ++ | Clonal growth ([2]; Experiment 22, L: area with low cell density, Medium concentration): ++ | Clonal growth [2, 7]: ++ | Clonal growth [2, 8]: ++ | Clonal growth [2, 9]: ++ | Clonal growth [2, 10]: ++ | Clonal growth [2, 11]: ++

CC(C)Cc1ccc(C(C)C(=O)O)cc1 (centres unmarked) [Ibuprofen]
Effect on clonal growth at 100 μM [1, 12]: insignificant inhibition | Significance of results ([1]; Ibuprofen No 8): possible | Significance ([1]; Exp 16 day 14, Ibuprofen No 8, 215 μM): possible | Growth ([1]; Exp 16 day 14, Ibuprofen No 8, 215 μM in wells): (+) | Growth ([1]; Exp 16 day 14, Ibuprofen No 8, 464 μM in wells): (+)) | Significance ([1]; Exp 16 day 14, Ibuprofen No 8, 464 μM, doubtful because the solvent DMSO might be inhibiting): doubtful* | Significance ([1]; Exp 16 day 21, Ibuprofen No 8, 215 μM): probable | Growth ([1]; Exp 16 day 21, Ibuprofen No 8, 215 μM in wells): (+)) | Growth ([1]; Exp 16 day 21, Ibuprofen No 8, 464 μM in wells): (+)) | Significance ([1]; Exp 16 day 21, Ibuprofen No 8, 464 μM, *see conclusion (DMSO)): doubtful* | Anti-clonal effect, summary of Exp 15 [1]: showed possible clonal inhibition at low | Anti-clonal effect, summary of Exp 16 [1]: Ibuprofen and Naproxen possibly inhibited and Acetyl

COc1ccc2cc([C@H](C)C(=O)O)ccc2c1 [Naproxen]
Effect on clonal growth at 500 μM [1, 12]: inhibited significantly | Effect on clonal growth at 500 μM ([1]; Exp 15, 32000 S100T1 cells/well, listed as Naproxea): probably inhibited significantly | Significance of results ([1]; Naproxen No 9): possible | Colony inhibiting activity for dosage within a range that might be therapeutic ([1]; Exp 16, about 40000 S100T1 cells/well): probably had a colony inhibiting activity; also recorded: the same activity possibly existed | Significance ([1]; Exp 16 day 14, Naproxen No 9, 108 μM): doubtful | Growth ([1]; Exp 16 day 14, Naproxen No 9, 108 μM in wells): (+ | Significance ([1]; Exp 16 day 14, Naproxen No 9, 232 μM): possible* | Growth ([1]; Exp 16 day 14, Naproxen No 9, 232 μM in wells): (+) | Significance ([1]; Exp 16 day 21, Naproxen No 9, 108 μM): doubtful | Growth ([1]; Exp 16 day 21, Naproxen No 9, 108 μM in wells): (+ | Significance ([1]; Exp 16 day 21, Naproxen No 9, 232 μM): possible* | Growth ([1]; Exp 16 day 21, Naproxen No 9, 232 μM in wells): (+) | Anti-clonal effect, summary of Exp 15 [1]: showed possible clonal inhibition at low | Anti-clonal effect, summary of Exp 16 [1]: Ibuprofen and Naproxen possibly inhibited and Acetyl | Effect on cell cloning in soft agar [2]: Clonal inhibition possible

O=C(O)Cc1ccccc1Nc1c(Cl)cccc1Cl [Diclofenac, reference compound]
Effect on clonal growth at 10 μM [1, 12]: probable significant increase in clonal growth | Effect on clonal growth at 10-100 μM [1, 12]: no significant inhibition | Anti-clonal effect, summary of Exp 15 [1]: increased clonal growth at low concentration | Clonal growth, L low density area of cell gradient, High [2]: ++ | Clonal growth, L low density area of cell gradient, Low [2]: ++(+) | Effect on cell cloning in soft agar [2]: A possible increase of clonal growth
